Molecular target: Ephrin type-B receptor 3 (Homo sapiens) (UniProt P54753)
Experiment: EPHB3 kinase inhibitors, dose response, biochemical, Z'-LYTE, FRET, protease-coupled, direct format (AID 1671275)
Conditions: Z'-LYTE FRET kinase activity assay, recombinant EPHB3

Chain of Ephrin type-B receptor 3 (Homo sapiens) (P54753 whole entry, looked up): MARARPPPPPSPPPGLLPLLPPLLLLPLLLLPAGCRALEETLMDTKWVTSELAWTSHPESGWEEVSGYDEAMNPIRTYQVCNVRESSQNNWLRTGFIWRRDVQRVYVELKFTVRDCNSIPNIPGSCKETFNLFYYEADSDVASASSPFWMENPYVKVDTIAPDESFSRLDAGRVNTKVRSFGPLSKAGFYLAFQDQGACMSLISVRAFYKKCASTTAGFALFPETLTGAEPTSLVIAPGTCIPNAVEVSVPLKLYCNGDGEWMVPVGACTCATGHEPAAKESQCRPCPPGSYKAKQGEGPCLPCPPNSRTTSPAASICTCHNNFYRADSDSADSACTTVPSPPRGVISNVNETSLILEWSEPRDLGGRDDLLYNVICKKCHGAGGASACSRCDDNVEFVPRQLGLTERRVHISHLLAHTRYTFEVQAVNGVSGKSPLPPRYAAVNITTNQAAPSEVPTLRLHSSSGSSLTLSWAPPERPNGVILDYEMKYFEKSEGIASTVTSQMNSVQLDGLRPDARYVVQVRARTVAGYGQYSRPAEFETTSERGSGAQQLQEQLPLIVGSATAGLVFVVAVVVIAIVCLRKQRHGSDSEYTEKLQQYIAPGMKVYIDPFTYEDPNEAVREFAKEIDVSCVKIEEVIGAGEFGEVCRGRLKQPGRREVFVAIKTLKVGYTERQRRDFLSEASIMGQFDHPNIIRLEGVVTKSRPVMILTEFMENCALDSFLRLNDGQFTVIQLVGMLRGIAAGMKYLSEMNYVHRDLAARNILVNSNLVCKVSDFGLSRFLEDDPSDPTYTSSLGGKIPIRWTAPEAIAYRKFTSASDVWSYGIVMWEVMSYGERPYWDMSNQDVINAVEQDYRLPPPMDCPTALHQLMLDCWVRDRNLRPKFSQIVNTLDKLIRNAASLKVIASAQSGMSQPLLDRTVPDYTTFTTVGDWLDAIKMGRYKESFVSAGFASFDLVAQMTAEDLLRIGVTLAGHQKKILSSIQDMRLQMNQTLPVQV

CC(C)(C)n1nc(-c2ccc(Cl)cc2)c2c(N)ncnc21
IC50: 763 nM
